We go through 30 molecules from patent US7531543B2, “Phenylpiperazine cycloalkanol derivatives and methods of their use” (Wyeth, priority 2003, dated 2009).

This experiment deals with T1, human hNET (Homo sapiens, UniProt P23975).
T1 construct: expressed in transfected cells; host or cells: MDCK-Net6 (MDCK cells stably transfected with hNET)
Put plainly: Norepinephrine (NE) uptake assay in MDCK-Net6 cells. Type of experiment: cell-based. The note with it: [3H]NE uptake, MDCK-Net6 cells stably transfected with hNET; for EC50: test range 1 to 10,000 nM. As to the method:
MDCK-Net6 cells, stably transfected with human hNET (Pacholczyk, T., R. D. Blakely, and S. G. Amara, Nature, 1991, 350(6316): p. 350-4) were cultured in growth medium containing high glucose DMEM (Gibco, Cat. No. 11995), 10% FBS (dialyzed, heat-inactivated, US Bio-Technologies, Lot FBD1129HI) and 500 µg/ml G418 (Gibco, Cat. No. 10131). Cells were plated at 300,000/T75 flask and cells were split twice weekly. The JAR cell line (human placental choriocarcinoma) was purchased from ATCC (Cat. No. HTB-144). The cells were cultured in growth medium containing RPMI 1640 (Gibco, Cat. No. 72400), 10% FBS (Irvine, Cat. No. 3000), 1% sodium pyruvate (Gibco, Cat. No. 1136) and 0.25% glucose. Cells were plated at 250,000 cells/T75 flask and split twice weekly. For all assays, cells were plated in Wallac 96-well sterile plates (PerkinElmer, Cat. No. 3983498).
Norepinephrine (NE) Uptake Assay
On day 1, cells were plated at 3,000 cells/well in growth medium and maintained in a cell incubator (37° C., 5% CO2). On day 2, growth medium was replaced with 200 μl of assay buffer (25 mM HEPES; 120 mM NaCl; 5 mM KCl; 2.5 mM CaCl2; 1.2 mM MgSO4; 2 mg/ml glucose (pH 7.4, 37° C.)) containing 0.2 mg/ml ascorbic acid and 10 μM pargyline. Plates containing cells with 200 μl of assay buffer were equilibrated for 10 minutes at 37° C. prior to addition of compounds. A stock solution of desipramine was prepared in DMSO (10 mM) and delivered to triplicate wells containing cells for a final test concentration of 1 μM. Data from these wells were used to define non-specific NE uptake (minimum NE uptake). Test compounds were prepared in DMSO (10 mM) and diluted in assay buffer according to test range (1 to 10,000 nM). Twenty-five microliters of assay buffer (maximum NE uptake) or test compound were added directly to triplicate wells containing cells in 200 μl of assay buffer. The cells in assay buffer with test compounds were incubated for 20 minutes at 37° C. To initiate the NE uptake, [^3H]NE diluted in assay buffer (120 nM final assay concentration) was delivered in 25 μl aliquots to each well and the plates were incubated for 5 minutes (37° C.). The reaction was terminated by decanting the supernatant from the plate. The plates containing cells were washed twice with 200 μl assay buffer (37° C.) to remove free radioligand. The plates were then inverted, left to dry for 2 minutes, then reinverted and air-dried for an additional 10 minutes. The cells were lysed in 25 μl of 0.25 N NaOH solution (4° C.), placed on a shake table and vigorously shaken for 5 minutes. After cell lysis, 75 μl of scintillation cocktail was added to each well and the plates were sealed with film tape. The plates were returned to the shake table and vigorously shaken for a minimum of 10 minutes to ensure adequate partitioning of organic and aqueous solutions. The plates were counted in a Wallac Microbeta counter (PerkinElmer) to collect the raw cpm data.
For each experiment, a data stream of cpm values collected from the Wallac Microbeta counter was downloaded to a Microsoft Excel statistical application program. Calculations of EC50 values were made using the transformed-both-sides logistic dose response program written by Wyeth Biometrics Department. The statistical program uses mean cpm values from wells representing maximum binding or uptake (assay buffer) and mean cpm values from wells representing minimum binding or uptake ((1 μM desipramine (hNET) or 1 μM paroxetine (hSERT)). Estimation of the EC50 value was completed on a log scale and the line was fit between the maximum and minimum binding or uptake values. All graphic data representation was generated by normalizing each data point to a mean percent based on the maximum and minimum binding or uptake values. The EC50 values reported from multiple experiments were calculated by pooling the raw data from each experiment and analyzing the pooled data as one experiment.

Counter-ions that a name gives are not always drawn.

T1 sequence (P23975 whole entry): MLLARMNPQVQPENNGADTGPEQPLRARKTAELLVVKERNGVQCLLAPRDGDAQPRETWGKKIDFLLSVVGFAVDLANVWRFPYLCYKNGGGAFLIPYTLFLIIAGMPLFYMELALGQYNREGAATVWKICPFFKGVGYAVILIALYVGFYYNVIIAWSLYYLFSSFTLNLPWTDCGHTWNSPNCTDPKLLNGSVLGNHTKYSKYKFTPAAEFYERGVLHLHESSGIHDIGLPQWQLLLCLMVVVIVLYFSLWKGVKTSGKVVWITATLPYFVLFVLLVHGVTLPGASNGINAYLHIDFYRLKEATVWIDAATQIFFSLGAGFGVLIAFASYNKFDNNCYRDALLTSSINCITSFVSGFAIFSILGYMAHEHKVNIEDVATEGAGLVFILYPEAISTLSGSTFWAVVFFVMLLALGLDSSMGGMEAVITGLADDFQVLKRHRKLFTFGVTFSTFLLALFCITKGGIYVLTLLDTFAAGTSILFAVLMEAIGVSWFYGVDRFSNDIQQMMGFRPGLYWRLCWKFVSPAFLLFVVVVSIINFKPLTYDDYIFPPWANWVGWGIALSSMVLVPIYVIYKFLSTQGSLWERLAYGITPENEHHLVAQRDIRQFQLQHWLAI

In general, inhibition refers to the drop in the measured response relative to a control, in per cent. As a reminder, the EC50 is the midpoint of the concentration-response curve. The low end stands for greater potency, the high end for weaker potency. As to `C[C@@H]1CN(CC(c2cccc(Cl)c2)C2(O)CCCCC2)C[C@H](C)N1` (stereo partly drawn) [Example 2, 1-{1-(3-chlorophenyl)-2-[(3R,5S)-3,5-dimethylpiperazin-1-yl]ethyl}cyclohexanol dihydrochloride], the EC50 amounted to 150 nM. Moreover, under “1 μM test compound”, the inhibition at 1 µM is 97%.

As for `OC1(C(CN2CCNCC2)c2cccc(Br)c2)CCCCC1` (stereo not shown) [Example 3, 1-[1-(3-bromophenyl)-2-piperazin-1-ylethyl]cyclohexanol dihydrochloride], the EC50 is 100 nM. For the same molecule, the inhibition at 1 µM (1 μM test compound) worked out at 96%.

As to `C[C@H]1CN(CC(c2cccc(Cl)c2)C2(O)CCCCC2)CCN1` (stereo partly drawn) [Example 4, 1-{1-(3-chlorophenyl)-2-[(3S)-3-methylpiperazin-1-yl]ethyl}cyclohexanol dihydrochloride], a half-maximal effect (EC50) was put at 59 nM. The inhibition at 1 µM (1 μM test compound) turned out to be 95%.

Consider `C[C@@H]1CN(CC(c2cccc(Cl)c2)C2(O)CCCCC2)CCN1` (stereo partly drawn) [Example 5, 1-{1-(3-chlorophenyl)-2-[(3R)-3-methylpiperazin-1-yl]ethyl}cyclohexanol dihydrochloride], for which the response was half-maximal at 110 nM (EC50). For the same molecule, the inhibition at 1 µM (1 μM test compound) came to 94%.

Regarding `OC1(C(CN2CCNCC2)c2ccc(Cl)c(Cl)c2)CCCCC1` (stereo not shown) [Example 6, 1-[1-(3,4-dichlorophenyl)-2-piperazin-1-ylethyl]cyclohexanol dihydrochloride], the EC50 amounted to 210 nM. In addition, the inhibition at 1 µM (1 μM test compound) turned out to be 87%.

On to `OC1(C(CN2CCNCC2)c2cccc(Br)c2)CCCCCC1` (stereo not shown) [Example 7, 1-[1-(3-bromophenyl)-2-piperazin-1-ylethyl]cycloheptanol dihydrochloride], for which the inhibition at 1 µM (1 μM test compound) stood at 86%.

On to `OC1(C(CN2CCNCC2)c2cccc(Cl)c2)CCCCCC1` (stereo not shown) [Example 8, 1-[1-(3-chlorophenyl)-2-piperazin-1-ylethyl]cycloheptanol dihydrochloride], for which the inhibition at 1 µM (1 μM test compound) worked out at 81%.

The molecule `OC1(C(CN2CCNCC2)c2cccc(F)c2)CCCCC1` (stereo not shown) [Example 9, 1-[1-(3-fluorophenyl)-2-piperazin-1-ylethyl]cyclohexanol dihydrochloride] yielded a 50% effective concentration (EC50) of 720 nM. The inhibition at 1 µM (1 μM test compound) was found to be 79%.

Turning to `OC1(C(CN2CCNCC2)c2cccc(Cl)c2)CCCC1` (stereo not shown) [Example 10, 1-[1-(3-chlorophenyl)-2-piperazin-1-ylethyl]cyclopentanol dihydrochloride], for the setting “1 μM test compound”, the inhibition at 1 µM was 63%.

`OC1(C(CN2CCNCC2)c2ccc(F)cc2)CCCCC1` (stereo not shown) [Example 11, 1-[1-(4-fluorophenyl)-2-piperazin-1-ylethyl]cyclohexanol dihydrochloride] returned an EC50 of 6400 nM. Also, the inhibition at 1 µM (1 μM test compound) was found to be 60%.

Consider `OC1(C(CN2CCNCC2)c2ccc(Br)cc2)CCC1` (stereo not shown) [Example 12, 1-[1-(4-bromophenyl)-2-piperazin-1-ylethyl]cyclobutanol dihydrochloride], for which the inhibition at 1 µM (1 μM test compound) turned out to be 55%.

For the molecule `COc1ccc(C(CN2CCNCC2)C2(O)CCCC2)cc1Br` (stereo not shown) [Example 13, 1-[1-(3-bromo-4-methoxyphenyl)-2-piperazin-1-ylethyl]cyclopentanol dihydrochloride], the inhibition at 1 µM (1 μM test compound) worked out at 53%.

With `OC1(C(CN2CCNCC2)c2cccc(C(F)(F)F)c2)CCC1` (stereo not shown) [Example 14, 1-{2-piperazin-1-yl-1-[3-(trifluoromethyl)phenyl]ethyl}cyclobutanol dihydrochloride], the inhibition at 1 µM (1 μM test compound) worked out at 27%.

With `CN1CCN(CC(c2cccc(C(F)(F)F)c2)C2(O)CCC2)CC1` (stereo not shown) [Example 15, 1-{2-(4-methylpiperazin-1-yl)-1-[3-(trifluoromethyl)phenyl]ethyl}cyclobutanol dihydrochloride], the inhibition at 1 µM (1 μM test compound) stood at 51%.

With `OC1(C(CN2CCNCC2)c2cccc(Br)c2)CCCC1` (stereo not shown) [Example 16, 1-[1-(3-bromophenyl)-2-piperazin-1-ylethyl]cyclopentanol dihydrochloride], the inhibition at 1 µM (1 μM test compound) amounted to 51%.

In the case of `OC1(C(CN2CCNCC2)c2ccc(Br)cc2)CCCCC1` (stereo not shown) [Example 17, 1-[1-(4-bromophenyl)-2-piperazin-1-ylethyl]cyclohexanol dihydrochloride], where the note is “1 μM test compound”, the inhibition at 1 µM was 46%.

Turning to `OC1(C(CN2CCNCC2)c2ccc(Cl)cc2)CCC1` (stereo not shown) [Example 18, 1-[1-(4-chlorophenyl)-2-piperazin-1-ylethyl]cyclobutanol dihydrochloride], the inhibition at 1 µM (1 μM test compound) was found to be 44%.

As for `OC1(C(CN2CCNCC2)c2ccc(F)cc2)CCC1` (stereo not shown) [Example 19, 1-[1-(4-fluorophenyl)-2-piperazin-1-ylethyl]cyclobutanol dihydrochloride], under “1 μM test compound”, the inhibition at 1 µM came out at 43%.

As for `Cl.Cl.OC1(C(CN2CCNCC2)c2ccc(Br)cc2)CCC1` (stereo not shown) [Example 20, 1-[1-(4-bromophenyl)-2-piperazin-1-ylethyl]cyclobutanol dihydrochloride], the “% Inhibition @ 1 μM (hNET)” value (1 μM test compound) is 55%.

Regarding `CN1CCN(CC(c2ccc(Br)cc2)C2(O)CCC2)CC1` (stereo not shown) [Example 21, 1-[1-(4-bromophenyl)-2-(4-methylpiperazin-1-yl)ethyl]cyclobutanol dihydrochloride], the inhibition at 1 µM (1 μM test compound) was found to be 36%.

On to `OC1(C(CN2CCNCC2)c2cccc(F)c2)CCC1` (stereo not shown) [Example 22, 1-[1-(3-fluorophenyl)-2-piperazin-1-ylethyl]cyclobutanol dihydrochloride], for which the inhibition at 1 µM (1 μM test compound) was 34%.

For `OC1(C(CN2CCNCC2)c2cccc(Cl)c2)CCC1` (stereo not shown) [Example 23, 1-[1-(3-chlorophenyl)-2-piperazin-1-ylethyl]cyclobutanol dihydrochloride], the inhibition at 1 µM (1 μM test compound) was found to be 28%.

For `CN1CCN(CC(c2cccc(Cl)c2)C2(O)CCC2)CC1` (stereo not shown) [Example 24, 1-[1-(3-chlorophenyl)-2-(4-methylpiperazin-1-yl)ethyl]cyclobutanol dihydrochloride], for the setting “1 μM test compound”, the inhibition at 1 µM is 34%.

On to `OC1(C(CN2CCNCC2)c2ccccc2F)CCCCC1` (stereo not shown) [Example 25, 1-[1-(2-fluorophenyl)-2-piperazin-1-ylethyl]cyclohexanol dihydrochloride], for which, for the setting “1 μM test compound”, the inhibition at 1 µM worked out at 31%.

With `OC1(C(CN2CCNCC2)c2ccc(Cl)cc2)CCCCC1` (stereo not shown) [Example 26, 1-[1-(4-chlorophenyl)-2-piperazin-1-ylethyl]cyclohexanol dihydrochloride], the inhibition at 1 µM (1 μM test compound) was 29%.

Regarding `OC1(C(CN2CCNCC2)c2cccc(Br)c2)CCC1` (stereo not shown) [Example 27, 1-[1-(3-bromophenyl)-2-piperazin-1-ylethyl]cyclobutanol dihydrochloride], where the note is “1 μM test compound”, the inhibition at 1 µM worked out at 22%.

On to `OC1(C(CN2CCNCC2)c2ccccc2F)CCC1` (stereo not shown) [Example 28, 1-[1-(2-fluorophenyl)-2-piperazin-1-ylethyl]cyclobutanol dihydrochloride], for which, for the setting “1 μM test compound”, the inhibition at 1 µM is 14%.

As to `CN1CCN(CC(c2cccc(F)c2)C2(O)CCC2)CC1` (stereo not shown) [Example 29, 1-[1-(3-fluorophenyl)-2-(4-methylpiperazin-1-yl)ethyl]cyclobutanol dihydrochloride], for the setting “1 μM test compound”, the inhibition at 1 µM stood at 12%.

With `CN1CCN(CC(c2ccc(Cl)cc2)C2(O)CCC2)CC1` (stereo not shown) [Example 30, 1-[1-(4-chlorophenyl)-2-(4-methylpiperazin-1-yl)ethyl]cyclobutanol dihydrochloride], for the setting “1 μM test compound”, the inhibition at 1 µM was -1%.

As to `CN1CCN(CC(c2ccccc2F)C2(O)CCC2)CC1` (stereo not shown) [Example 31, 1-[1-(2-fluorophenyl)-2-(4-methylpiperazin-1-yl)ethyl]cyclobutanol dihydrochloride], the inhibition at 1 µM (1 μM test compound) was -6%.
